According to article PMC10896643 (Journal of medicinal chemistry, 2023):
Entries after “also recorded” stand apart in the source; their conditions may differ.

Tests used:
hA3AR = target: T1, hA3AR (Homo sapiens, UniProt P0DMS8); assay: cAMP functional assay in CHO-A3 cells; details: 10 μM
T1 sequence (P0DMS8 1-318): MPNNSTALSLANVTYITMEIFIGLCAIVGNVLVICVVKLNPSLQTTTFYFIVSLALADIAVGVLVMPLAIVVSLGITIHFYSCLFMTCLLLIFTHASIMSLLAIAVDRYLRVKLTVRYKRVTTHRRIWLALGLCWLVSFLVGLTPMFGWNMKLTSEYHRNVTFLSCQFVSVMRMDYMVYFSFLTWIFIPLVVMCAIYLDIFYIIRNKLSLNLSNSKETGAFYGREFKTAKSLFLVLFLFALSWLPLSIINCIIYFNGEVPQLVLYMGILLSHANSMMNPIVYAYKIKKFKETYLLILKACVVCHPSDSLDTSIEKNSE

hA2AAR = hA2AAR (Homo sapiens, UniProt P29274); assay: cAMP functional assay in CHO-A2A cells; details: 10 μM
hA2AAR, sequence (P29274 whole entry): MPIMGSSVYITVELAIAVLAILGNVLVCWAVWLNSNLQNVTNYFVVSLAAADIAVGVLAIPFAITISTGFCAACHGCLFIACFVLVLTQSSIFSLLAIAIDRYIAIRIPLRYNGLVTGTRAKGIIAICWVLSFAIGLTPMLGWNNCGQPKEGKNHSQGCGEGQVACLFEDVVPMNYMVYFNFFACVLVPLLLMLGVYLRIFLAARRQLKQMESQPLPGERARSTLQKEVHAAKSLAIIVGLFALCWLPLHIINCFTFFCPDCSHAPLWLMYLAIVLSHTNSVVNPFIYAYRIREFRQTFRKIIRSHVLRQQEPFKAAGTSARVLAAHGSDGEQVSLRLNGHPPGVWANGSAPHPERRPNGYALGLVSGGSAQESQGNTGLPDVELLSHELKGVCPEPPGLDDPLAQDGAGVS

hERG K+ channels = hERG K+ channels (Homo sapiens, UniProt Q12809); assay: hERG K+ channel inhibition; assay type: in vitro ADME
hERG K+ channels, sequence (Q12809 whole entry, canonical isoform): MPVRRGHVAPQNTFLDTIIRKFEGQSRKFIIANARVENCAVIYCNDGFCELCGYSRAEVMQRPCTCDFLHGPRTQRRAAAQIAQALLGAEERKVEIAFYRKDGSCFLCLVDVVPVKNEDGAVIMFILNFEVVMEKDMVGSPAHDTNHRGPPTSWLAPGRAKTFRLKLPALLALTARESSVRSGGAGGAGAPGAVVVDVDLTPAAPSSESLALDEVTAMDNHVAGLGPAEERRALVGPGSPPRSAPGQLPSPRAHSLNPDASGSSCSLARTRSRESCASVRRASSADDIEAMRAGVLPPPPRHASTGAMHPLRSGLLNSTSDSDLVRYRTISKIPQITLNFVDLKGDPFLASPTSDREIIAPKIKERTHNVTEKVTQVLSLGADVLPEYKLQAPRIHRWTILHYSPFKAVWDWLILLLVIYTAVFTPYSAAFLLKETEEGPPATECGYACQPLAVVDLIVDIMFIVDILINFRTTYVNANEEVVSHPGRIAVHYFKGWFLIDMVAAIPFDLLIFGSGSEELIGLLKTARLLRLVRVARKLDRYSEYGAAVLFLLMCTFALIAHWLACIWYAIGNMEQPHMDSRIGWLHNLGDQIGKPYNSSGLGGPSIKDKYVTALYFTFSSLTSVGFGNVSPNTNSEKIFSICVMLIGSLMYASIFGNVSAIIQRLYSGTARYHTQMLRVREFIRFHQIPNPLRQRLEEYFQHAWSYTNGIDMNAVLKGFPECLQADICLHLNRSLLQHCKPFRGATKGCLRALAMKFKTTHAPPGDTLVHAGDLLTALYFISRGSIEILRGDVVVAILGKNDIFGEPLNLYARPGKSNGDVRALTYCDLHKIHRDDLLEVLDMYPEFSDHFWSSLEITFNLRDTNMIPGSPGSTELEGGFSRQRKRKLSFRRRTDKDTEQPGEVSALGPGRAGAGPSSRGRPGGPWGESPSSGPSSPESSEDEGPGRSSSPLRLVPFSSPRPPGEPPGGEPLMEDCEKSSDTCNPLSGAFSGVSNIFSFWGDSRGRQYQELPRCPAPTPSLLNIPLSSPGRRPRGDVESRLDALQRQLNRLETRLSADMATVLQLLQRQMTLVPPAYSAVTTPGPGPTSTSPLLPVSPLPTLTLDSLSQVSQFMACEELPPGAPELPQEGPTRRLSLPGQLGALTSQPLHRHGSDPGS

CYP1A2 = target: T2, CYP1A2 (Homo sapiens, UniProt P05177); assay: CYP isoform inhibition; assay type: in vitro ADME
T2 sequence (P05177 1-516): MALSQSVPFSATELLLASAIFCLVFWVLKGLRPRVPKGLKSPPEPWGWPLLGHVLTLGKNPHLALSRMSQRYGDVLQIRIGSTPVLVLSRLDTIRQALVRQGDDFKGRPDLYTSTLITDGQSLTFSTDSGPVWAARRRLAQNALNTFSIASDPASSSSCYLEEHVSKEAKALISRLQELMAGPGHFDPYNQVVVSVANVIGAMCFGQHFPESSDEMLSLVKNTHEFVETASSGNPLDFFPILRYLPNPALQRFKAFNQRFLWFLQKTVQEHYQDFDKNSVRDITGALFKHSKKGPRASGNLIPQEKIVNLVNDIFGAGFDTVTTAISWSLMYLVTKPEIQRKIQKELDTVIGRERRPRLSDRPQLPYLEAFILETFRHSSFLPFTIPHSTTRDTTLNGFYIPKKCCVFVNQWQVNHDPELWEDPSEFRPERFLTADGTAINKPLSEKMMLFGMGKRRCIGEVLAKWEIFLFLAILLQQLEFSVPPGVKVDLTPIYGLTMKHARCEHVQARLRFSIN

4T1-Luc tumors = assay: In vivo antitumor activity in 4T1-Luc tumor-bearing mice; details: 10 mg/kg i.p., alone or with anti-PD-L1
CYP3A4 = CYP3A4 (Homo sapiens, UniProt P08684); assay: CYP isoform inhibition; assay type: in vitro ADME
CYP3A4, sequence (P08684 whole entry, species assumed, canonical isoform): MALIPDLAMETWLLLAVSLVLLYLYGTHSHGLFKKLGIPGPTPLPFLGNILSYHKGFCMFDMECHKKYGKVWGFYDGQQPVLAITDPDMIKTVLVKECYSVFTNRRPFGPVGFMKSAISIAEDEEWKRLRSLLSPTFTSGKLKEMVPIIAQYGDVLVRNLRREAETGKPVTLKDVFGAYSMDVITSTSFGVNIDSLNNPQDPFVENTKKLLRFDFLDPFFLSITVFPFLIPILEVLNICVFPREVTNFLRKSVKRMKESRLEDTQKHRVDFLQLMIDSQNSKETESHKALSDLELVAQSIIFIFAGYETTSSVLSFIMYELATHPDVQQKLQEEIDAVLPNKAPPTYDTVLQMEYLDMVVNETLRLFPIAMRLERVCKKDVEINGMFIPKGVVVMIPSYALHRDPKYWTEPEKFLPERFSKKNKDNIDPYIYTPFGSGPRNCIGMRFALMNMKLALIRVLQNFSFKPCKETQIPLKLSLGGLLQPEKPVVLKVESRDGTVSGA

CYP2C9 = CYP2C9 (Homo sapiens, UniProt P11712); assay: CYP isoform inhibition; assay type: in vitro ADME
CYP2C9, sequence (P11712 whole entry, species assumed, canonical isoform): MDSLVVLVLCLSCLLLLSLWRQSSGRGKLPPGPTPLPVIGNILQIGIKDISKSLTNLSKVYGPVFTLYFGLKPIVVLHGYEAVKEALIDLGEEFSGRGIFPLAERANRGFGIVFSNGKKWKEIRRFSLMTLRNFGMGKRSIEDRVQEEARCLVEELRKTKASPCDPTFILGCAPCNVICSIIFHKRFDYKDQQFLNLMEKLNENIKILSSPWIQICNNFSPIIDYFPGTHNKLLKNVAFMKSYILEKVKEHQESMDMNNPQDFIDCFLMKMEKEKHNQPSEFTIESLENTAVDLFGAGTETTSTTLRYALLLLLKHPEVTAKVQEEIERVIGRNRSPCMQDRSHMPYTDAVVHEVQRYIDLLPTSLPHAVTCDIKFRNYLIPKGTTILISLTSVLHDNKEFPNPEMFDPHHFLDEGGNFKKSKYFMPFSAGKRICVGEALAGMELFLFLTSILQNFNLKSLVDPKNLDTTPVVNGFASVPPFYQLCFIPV

CYP2C19 = CYP2C19 (Homo sapiens, UniProt P33261); assay: CYP isoform inhibition; assay type: in vitro ADME
CYP2C19, sequence (P33261 whole entry, species assumed, canonical isoform): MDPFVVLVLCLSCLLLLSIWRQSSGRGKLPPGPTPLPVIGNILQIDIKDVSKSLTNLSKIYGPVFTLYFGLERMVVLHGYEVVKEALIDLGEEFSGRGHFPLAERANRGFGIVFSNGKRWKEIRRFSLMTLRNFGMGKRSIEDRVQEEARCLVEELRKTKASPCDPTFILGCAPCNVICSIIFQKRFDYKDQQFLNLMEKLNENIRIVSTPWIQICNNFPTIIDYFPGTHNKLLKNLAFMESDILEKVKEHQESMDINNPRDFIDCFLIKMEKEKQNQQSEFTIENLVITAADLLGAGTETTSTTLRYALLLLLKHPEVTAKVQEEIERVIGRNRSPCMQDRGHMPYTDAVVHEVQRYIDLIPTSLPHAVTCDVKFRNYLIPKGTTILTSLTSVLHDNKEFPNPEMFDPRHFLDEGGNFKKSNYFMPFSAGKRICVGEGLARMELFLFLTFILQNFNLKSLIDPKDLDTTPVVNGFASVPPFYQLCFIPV

CYP2D6 = CYP2D6 (Homo sapiens, UniProt P10635); assay: CYP isoform inhibition; assay type: in vitro ADME
CYP2D6, sequence (P10635 whole entry, species assumed, canonical isoform): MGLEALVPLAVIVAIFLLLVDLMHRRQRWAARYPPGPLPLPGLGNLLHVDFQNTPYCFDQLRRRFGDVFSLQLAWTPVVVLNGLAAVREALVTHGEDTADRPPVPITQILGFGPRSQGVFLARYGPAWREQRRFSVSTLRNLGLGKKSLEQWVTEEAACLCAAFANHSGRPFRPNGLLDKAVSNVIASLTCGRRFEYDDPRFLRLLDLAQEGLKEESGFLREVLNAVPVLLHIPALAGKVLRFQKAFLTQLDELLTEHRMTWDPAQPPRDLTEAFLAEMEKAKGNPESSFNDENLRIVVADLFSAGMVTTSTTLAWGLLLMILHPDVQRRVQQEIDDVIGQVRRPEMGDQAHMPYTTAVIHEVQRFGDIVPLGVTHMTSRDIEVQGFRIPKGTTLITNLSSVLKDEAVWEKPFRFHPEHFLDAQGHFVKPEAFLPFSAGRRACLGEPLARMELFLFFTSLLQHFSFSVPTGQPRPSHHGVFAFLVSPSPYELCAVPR

Row | SMILES | hA3AR activation (hA3AR) | receptor activation / antagonism at hA2AAR (hA2AAR) | hERG K+ channel inhibition (hERG K+ channels) | CYP1A2 inhibition (CYP1A2) | adverse effects / body weight loss (4T1-Luc tumors) | CYP3A4 inhibition (CYP3A4) | CYP2C9 inhibition (CYP2C9) | CYP2C19 inhibition (CYP2C19) | CYP2D6 inhibition (CYP2D6)
1 | CCCCC#Cc1nc(N)c2nc(-c3ccco3)n([C@@H]3OC[C@@H](O)[C@H]3O)c2n1 [5a, (2R,3R,4R)-2-(6-Amino-8-(furan-2-yl)-2-(hex-1-yn-1-yl)-9H-purin-9-yl)tetrahydrofuran-3,4-diol] | inhibited hA3AR activation | no receptor activation |  |  |  |  |  |  | 
2 | CCCCC#Cc1nc(N)c2nc(-c3cccs3)n([C@@H]3OC[C@@H](O)[C@H]3O)c2n1 [5d, (2R,3R,4R)-2-(6-Amino-2-(hex-1-yn-1-yl)-8-(thiophen-2-yl)-9H-purin-9-yl)tetrahydrofuran-3,4-diol] |  |  | did not significantly inhibit | did not significantly inhibit | No adverse effects or body weight loss; also recorded: without any adverse effects and body weight loss | did not significantly inhibit | did not significantly inhibit | did not significantly inhibit | did not significantly inhibit
